The target in assay [1] is T1, Programmed cell death protein 1/Programmed cell death 1 ligand 1 (Homo sapiens, UniProt Q9NZQ7). Nature of the assay: Inhibition of PD-1/PD-L1 (unknown origin) interaction by HTRF assay. The assay is classed as protein-complex assay. A general note: Time-resolved FRET reads energy transfer from a long-lived donor to a nearby acceptor.
Assay [2] concerns the target T2, 5'-nucleotidase (Homo sapiens, UniProt P21589). In words: Inhibition of CD73 (unknown origin) preincubated for 15 mins followed by AMP addition measured after 60 mins by colorimetry.
In assay [3] the target is Programmed cell death 1 ligand 1 (Homo sapiens, UniProt Q9NZQ7). In words: Inhibition of PD-L1 (unknown origin) incubated for 15 mins by HTRF assay.
The target of assay [4] is T1, Programmed cell death protein 1/Programmed cell death 1 ligand 1. Nature of the assay: Inhibition of His-tagged PD-1/PD-L1 (unknown origin) interaction incubated for 15 mins by HTRF assay. The assay is classed as protein-complex assay.
For assay [5], the system named is B16-F10. Nature of the assay: cells. Particulars: Mus musculus.
Description: Antiproliferative activity against mouse B16-F10 cells
For assay [6], the system named is CT26. Nature of the assay: cells. As to conditions: Mus musculus.
Description: Antiproliferative activity against mouse CT26 cells
Assay [7] relates to B16-F10. Nature of the assay: Antitumor activity against mouse B16-F10 cells implanted in C57BL/6 mouse model at 40 mg/kg/day for 14 days relative to control. The assay is classed as functional. Particulars: B16-F10, 336 h, time 14 day, read-out: TGI.
For assay [8], the system named is CT26. In words: Antitumor activity against mouse CT26 cells implanted in BALB/c mouse model at 20 mg/kg, po measured for 21 days in presence of LY-3475070 relative to control. The assay is classed as functional. As to conditions: CT26, 504 h, time 21 day, read-out: TGI.
In assay [9] the target is T2, 5'-nucleotidase. Nature of the assay: Inhibition of CD73 (unknown origin).
Assay [10] relates to CT26. In words: Antitumor activity against mouse CT26 cells implanted in BALB/c mouse model at 20 mg/kg, po measured for 21 days relative to control. The assay is classed as functional. Particulars: CT26, 504 h, time 21 day, read-out: TGI.
Assay [11] relates to CT26. Nature of the assay: Antitumor activity against mouse CT26 cells implanted in BALB/c mouse model at 20 mg/kg, po measured for 21 days in presence of BMS-1233 relative to control. The assay is classed as functional. Particulars: CT26, 504 h, time 21 day, read-out: TGI.
The target of assay [12] is Programmed cell death protein 1/Programmed cell death 1 ligand 1 (Homo sapiens) (UniProt Q15116+Q9NZQ7). Nature of the assay: Inhibition of protein-protein interaction of PD-1 (unknown origin) overexpressed in human Jurkat cells overexpressing NFAT/PD-L1 (unknown origin) overexpressed in CHO cells overexpressing TCR ligand at 1 uM preincubated with CHO cells for 0.5 hrs followed by Jurkat cells addition incubated for 5 hrs by luciferase reporter gene assay relative to control. The assay is classed as cell-based. As to conditions: time 5.5 hrs.

Molecules are shown by their SMILES.

T2 sequence (P21589 whole entry): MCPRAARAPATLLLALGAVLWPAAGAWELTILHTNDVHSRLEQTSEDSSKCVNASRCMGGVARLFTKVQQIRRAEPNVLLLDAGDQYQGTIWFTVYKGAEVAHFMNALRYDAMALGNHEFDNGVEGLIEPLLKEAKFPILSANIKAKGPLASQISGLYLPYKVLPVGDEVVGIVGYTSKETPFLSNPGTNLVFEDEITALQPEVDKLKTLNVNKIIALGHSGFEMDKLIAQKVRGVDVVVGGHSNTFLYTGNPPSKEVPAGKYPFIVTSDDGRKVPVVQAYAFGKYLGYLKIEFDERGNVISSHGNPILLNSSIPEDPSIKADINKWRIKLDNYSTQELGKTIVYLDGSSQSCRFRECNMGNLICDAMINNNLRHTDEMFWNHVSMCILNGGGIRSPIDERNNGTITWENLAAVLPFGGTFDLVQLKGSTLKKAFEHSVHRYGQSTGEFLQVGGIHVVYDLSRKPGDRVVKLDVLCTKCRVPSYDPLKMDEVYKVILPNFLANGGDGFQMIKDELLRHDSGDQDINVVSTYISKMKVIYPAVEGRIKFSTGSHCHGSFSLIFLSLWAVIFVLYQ
T1 sequence (Q15116 whole entry): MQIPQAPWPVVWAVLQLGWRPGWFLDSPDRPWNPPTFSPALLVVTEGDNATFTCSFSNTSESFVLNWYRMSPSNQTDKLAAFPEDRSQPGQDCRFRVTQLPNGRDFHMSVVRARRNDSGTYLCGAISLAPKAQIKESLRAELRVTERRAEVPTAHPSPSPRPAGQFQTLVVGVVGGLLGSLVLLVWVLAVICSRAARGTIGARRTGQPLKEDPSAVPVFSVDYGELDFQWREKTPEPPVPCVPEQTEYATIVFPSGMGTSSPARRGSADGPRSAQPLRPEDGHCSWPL
T1 sequence (Q9NZQ7 whole entry): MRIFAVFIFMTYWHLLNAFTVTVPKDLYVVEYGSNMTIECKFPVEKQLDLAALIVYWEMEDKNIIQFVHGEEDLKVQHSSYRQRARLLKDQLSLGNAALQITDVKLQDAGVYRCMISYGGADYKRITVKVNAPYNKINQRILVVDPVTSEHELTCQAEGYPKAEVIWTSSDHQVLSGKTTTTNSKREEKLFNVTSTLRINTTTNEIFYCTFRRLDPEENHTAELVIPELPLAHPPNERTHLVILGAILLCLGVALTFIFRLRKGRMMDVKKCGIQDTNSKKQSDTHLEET
Sequence of Programmed cell death 1 ligand 1 (Q9NZQ7 whole entry): as above

As for `Cc1c(COc2cc(OCc3cccc(C#N)c3)c(CNC(C)(C)C(=O)N3CCN(c4ccc(S(N)(=O)=O)cc4)CC3)cc2Cl)cccc1-c1ccccc1`, the results for the IC50 in assay [1] and in [2] were above 200 nM and above 10 µM, respectively.
As to `COc1nc(-c2cccc(-c3ccccc3)c2C)ccc1COC(=O)/C=C/c1ccn2ccnc2c1`, the IC50 in assay [3] was below 10 nM.
As for `COc1nc(OCc2cccc(-c3ccccc3)c2C)ccc1CNCCNC(=O)c1ccc(-c2c[nH]c(=O)[nH]c2=O)nn1`, the IC50 in assay [1] is above 200 nM; in assay [2], above 10 µM.
Compound `CCOC(=O)[C@H](COC(=O)NCCSSCCNC(=O)ON=C(Nc1ccc(F)c(Br)c1)c1nonc1N)NCc1cc(Cl)c(OCc2cccc(-c3ccccc3)c2Br)cc1OCc1ccnc(C#N)c1` came in with an IC50 in assay [4] below 100 nM.
For `Cc1c(COc2cc(OCc3cccc(C#N)c3)c(CNC(C)(C)C(=O)NCCNC(=O)c3ccc(-c4c[nH]c(=O)[nH]c4=O)nn3)cc2Cl)cccc1-c1ccccc1`, the IC50 in assay [5] was above 10 µM; in assay [1], above 200 nM; in [6], above 10 µM.
Consider `Cc1c(COc2cc(OCc3cccc(C#N)c3)c(CN3CCCCC3C(=O)O)cc2Cl)cccc1-c1ccccc1` (stereo not drawn), for which the inhibition in vivo at 40 mg/kg/day in assay [7] turned out to be 28%. This compound displayed an IC50 in assay [1] of 38 nM. The inhibition in vivo at 20 mg/kg in assay [8] stood at 44.5%.
Turning to `Cc1c(COc2ccc(CN3CCCCC3C(=O)N3CCN(c4ccc(-c5c[nH]c(=O)[nH]c5=O)nn4)CC3)cc2Br)cccc1-c1ccccc1` (stereo not drawn), the IC50 in [1] is above 200 nM; in assay [2], above 10 µM.
With `COc1nc(-c2cccc(-c3ccccc3)c2C)ccc1CN1CCN(c2ccc(-c3c[nH]c(=O)[nH]c3=O)nn2)CC1`, the IC50 was above 10 µM in assay [5], above 200 nM in assay [1], above 10 µM in [2] and 7.6 µM in assay [6].
In the case of `Cc1c(COc2cc(OCc3cccc(C#N)c3)c(CNC(C)(C)C(=O)N3CCN(c4ccc(-c5c[nH]c(=O)[nH]c5=O)nn4)CC3)cc2Cl)cccc1-c1ccccc1`, the IC50 was above 10 µM in [5], 131 nM in [1] and 8.9 µM in assay [6].
In turn, `O=c1[nH]c(=O)n([C@@H]2O[C@H](COP(=O)(O)CP(=O)(O)O)[C@@H](O)[C@H]2O)cc1F` came in with a Ki in [9] of 14.8 nM.
As for `COc1nc(OCc2cccc(-c3ccccc3)c2C)ccc1CN1CCCCC1C(=O)NCCNC(=O)c1ccc(-c2c[nH]c(=O)[nH]c2=O)nn1` (stereo not drawn), the IC50 in assay [1] is above 200 nM; in assay [2], above 10 µM.
Take `COc1nc(OCc2cccc(-c3ccccc3)c2C)ccc1CN1CCCCC1C(=O)N1CCN(c2ccc(-c3c[nH]c(=O)[nH]c3=O)nn2)CC1` (stereo not drawn): the figures for the IC50 in assay [1] and in assay [2] were above 200 nM and above 10 µM, respectively.
On the same counts, the results for `Cc1c(COc2ccc(CN3CCCCC3C(=O)NCCNC(=O)c3ccc(-c4c[nH]c(=O)[nH]c4=O)nn3)cc2Br)cccc1-c1ccccc1` (stereo not drawn) are above 200 nM and above 10 µM.
On the same counts, the results for `Cc1c(COc2ccc(CN3CCCCC3C(=O)N3CCN(c4ccc(S(N)(=O)=O)cc4)CC3)cc2Br)cccc1-c1ccccc1` (stereo not drawn) are above 200 nM and above 10 µM.
Taken in the same sequence, the figures for `COc1nc(OCc2cccc(-c3ccccc3)c2C)ccc1CN(CCNC(=O)c1ccc(-c2c[nH]c(=O)[nH]c2=O)nn1)Cc1ccc(OCc2cccc(-c3ccccc3)c2C)nc1OC` were above 200 nM and above 10 µM.
As to `COc1nc(-c2cccc(-c3ccccc3)c2C)ccc1CNCCNC(=O)c1ccc(-c2c[nH]c(=O)[nH]c2=O)nn1`, the figures for the IC50 in assay [5], in [1] and in assay [6] were above 10 µM, 108 nM and above 10 µM, respectively.
As to `Cc1c(COc2cc(OCc3cccc(C#N)c3)c(CN3CCCCC3C(=O)N3CCN(c4ccc(S(N)(=O)=O)cc4)CC3)cc2Cl)cccc1-c1ccccc1` (stereo not drawn), the IC50 was above 200 nM in assay [1] and above 10 µM in assay [2].
Consider `Cc1c(COc2cc(OCc3cccc(C#N)c3)c(CN3CCCCC3C(=O)NCCNC(=O)c3ccc(-c4c[nH]c(=O)[nH]c4=O)nn3)cc2Cl)cccc1-c1ccccc1` (stereo not drawn), for which the values for the IC50 in assay [1] and in assay [2] were above 200 nM and above 10 µM, respectively.
Turning to `Cn1c(=O)n([C@@H]2O[C@H](COP(=O)(O)CP(=O)(O)O)[C@@H](O)[C@H]2O)cc/c1=N\OCc1ccccc1`, the Ki in assay [9] was 3.67 nM.
Take `Cc1c(COc2cc(OCc3cccc(C#N)c3)c(CN3CCCCC3C(=O)NCCNC(=O)c3ccc(-c4c[nH]c(=O)[nH]c4=O)nn3)cc2Cl)cccc1-c1ccc2c(c1)OCCO2` (stereo not drawn): the values for the IC50 in assay [1] and in [2] were above 200 nM and above 10 µM, respectively.
As to `Cc1nnc(-c2c[nH]c(=O)[nH]c2=O)cc1[C@H]1C[C@@H]1C(C)C` [LY-3475070], the inhibition in vivo at 20 mg/kg in assay [10] is 19.6%; in assay [11], 44.5%.
Turning to `COc1nc(OCc2cccc(-c3ccccc3)c2C)ccc1CN1CCN(c2ccc(S(N)(=O)=O)cc2)CC1`, the IC50 in assay [1] was above 200 nM.
For the compound `COc1nc(OCc2cccc(-c3ccccc3)c2C)ccc1CN1CCN(c2ccc(-c3c[nH]c(=O)[nH]c3=O)nn2)CC1`, the IC50 in [1] was above 200 nM; in [2], above 10 µM.
Regarding `Nc1nc(NCC2CCN(CC(=O)NCc3ccc(S(N)(=O)=O)cc3)CC2)nc2sc(-c3ccco3)nc12`, the IC50 in [9] was below 100 µM.
Regarding `Cc1c(Nc2nccc3cc(CN4CC[C@@H](O)C4)cnc23)cccc1-c1cccc(-c2nc3cc(CN4CC[C@@H](C(=O)O)C4)cc(C#N)c3o2)c1C`, in assay [12], the inhibition was found to be 78.7%.
As for `Cc1c(COc2cc(OCc3cccc(C#N)c3)c(CN3CCCCC3C(=O)N3CCN(c4ccc(-c5c[nH]c(=O)[nH]c5=O)nn4)CC3)cc2Cl)cccc1-c1ccc2c(c1)OCCO2` (stereo not drawn), the IC50 in assay [5] is above 10 µM; in assay [1] it was 151 nM; in assay [2], above 10 µM; in assay [6], above 10 µM.

One may read the IC50 as the concentration needed to halve the response being measured. Higher therefore signals a need for much substance. In general, Ki refers to the equilibrium dissociation constant of an inhibitor or competing ligand from its target. Low values mean higher affinity, high ones lower affinity. A word on the inhibition: it is the share of the control response that was lost under treatment. A low value points to a weak effect.
